Like-named read-outs stand apart in the source and are kept apart here.

Assay [1] relates to influenza virus (PR/8/34 (H1N1)). Type of assay: cell-based. As to conditions: for IC50: Vero cells, 2 days, read-out: The 50% CPE inhibitory concentration of T-705.
The subject of a further assay is Vero cells. As to conditions: with T-705.

Take `NC(=O)c1nc(F)cnc1O` [T-705]: the IC50 in assay [1] (T-705 alone (6-methylmercaptopurine 0 μM)) is 183 µM; in assay [1] (with 6-methylmercaptopurine 0.1 μM), 89.4 µM; in assay [1] (with 6-methylmercaptopurine 0.3 μM), 48.9 µM; in assay [1] (with 6-methylmercaptopurine 1 μM) it was 30.6 µM; in assay [1] (with 6-methylmercaptopurine 3 μM), 21.9 µM; in assay [1] (with 6-methylmercaptopurine 10 μM), 20.2 µM. In addition, the “50% CPE inhibitory concentration of T-705 in combination compared to T-705 alone” value in assay [1] (in combination with 6-methylmercaptopurine riboside) is recorded as “lower”.
Turning to `CSc1ncnc2c1ncn2[C@@H]1O[C@H](CO)[C@@H](O)[C@H]1O` [6-methylmercaptopurine riboside], the CPE inhibitory effect result in assay [1] (6-methylmercaptopurine riboside 10 μM alone) is on record as “did not show a CPE inhibitory effect”. In the assay on Vero cells, the “Effect on intracellular T-705RTP amount after T-705 treatment” value was “increased”.
